Here are results for three compounds from US20260193264A1, “BENZOYPARAZINE PYRAZINES AND THEIR USES” (FOGHORN THERAPEUTICS INC., priority 2022, published 2026).

Assay [1] addresses T1, HiBiT-BRM fusion protein in stable HeLa cell line (Homo sapiens, UniProt P51531).
T1 construct: expressed in transfected cells
Description: HiBiT-BRM cell-based degradation assay (Nano-Glo HiBiT Lytic Detection, 24 h). On the set-up: DC50: scale not given here. The note with it: HeLa HiBiT-BRM cells; for DC50: read-out: BRM HiBit Degradation IC50; for BRM HiBit Degradation Maximum (%): top dose 30 μM. In a few lines:
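Stable HiBiT-BRM HeLa cells treated 24 h with 10-point 3-fold dilutions, top final dose 30 μM, in duplicate. Luminescence read after lytic LgBiT reagent. Percent degradation was normalised to DMSO (high control) and 2 μM reference BRM/BRG1 degrader (low control).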
In general terms: With HiBiT, luminescence reflects the tagged protein that the partner subunit can reach.

Assay [2] concerns the target T2, HiBit-BRG1 fusion protein in stable HeLa cell line expressing HiBit-BRG1 and LgBit (Homo sapiens, UniProt P51532).
T2 construct: expressed in transfected cells
Put plainly: HiBiT-BRG1 cell-based degradation assay (Nano-Glo HiBiT, 24 h). The note with it: HeLa HiBit-BRG1/LgBit cells; for Dmax: top dose 30 μM, read-out: BRG1 HiBit Degradation Maximum (%); for DC50: read-out: BRMG1 HiBit Degradation IC50. In a few lines: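 Stable HeLa line co-expressing HiBiT-BRG1 and LgBiT, compound-treated 24 h; luminescence read after Nano-Glo HiBiT lytic reagent. % degradation normalised between DMSO (high control) and 2 μM reference BRM/BRG1 degrader (low control).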

The structures appear in SMILES notation.

T1 sequence (P51531 whole entry, the tested form may be a part): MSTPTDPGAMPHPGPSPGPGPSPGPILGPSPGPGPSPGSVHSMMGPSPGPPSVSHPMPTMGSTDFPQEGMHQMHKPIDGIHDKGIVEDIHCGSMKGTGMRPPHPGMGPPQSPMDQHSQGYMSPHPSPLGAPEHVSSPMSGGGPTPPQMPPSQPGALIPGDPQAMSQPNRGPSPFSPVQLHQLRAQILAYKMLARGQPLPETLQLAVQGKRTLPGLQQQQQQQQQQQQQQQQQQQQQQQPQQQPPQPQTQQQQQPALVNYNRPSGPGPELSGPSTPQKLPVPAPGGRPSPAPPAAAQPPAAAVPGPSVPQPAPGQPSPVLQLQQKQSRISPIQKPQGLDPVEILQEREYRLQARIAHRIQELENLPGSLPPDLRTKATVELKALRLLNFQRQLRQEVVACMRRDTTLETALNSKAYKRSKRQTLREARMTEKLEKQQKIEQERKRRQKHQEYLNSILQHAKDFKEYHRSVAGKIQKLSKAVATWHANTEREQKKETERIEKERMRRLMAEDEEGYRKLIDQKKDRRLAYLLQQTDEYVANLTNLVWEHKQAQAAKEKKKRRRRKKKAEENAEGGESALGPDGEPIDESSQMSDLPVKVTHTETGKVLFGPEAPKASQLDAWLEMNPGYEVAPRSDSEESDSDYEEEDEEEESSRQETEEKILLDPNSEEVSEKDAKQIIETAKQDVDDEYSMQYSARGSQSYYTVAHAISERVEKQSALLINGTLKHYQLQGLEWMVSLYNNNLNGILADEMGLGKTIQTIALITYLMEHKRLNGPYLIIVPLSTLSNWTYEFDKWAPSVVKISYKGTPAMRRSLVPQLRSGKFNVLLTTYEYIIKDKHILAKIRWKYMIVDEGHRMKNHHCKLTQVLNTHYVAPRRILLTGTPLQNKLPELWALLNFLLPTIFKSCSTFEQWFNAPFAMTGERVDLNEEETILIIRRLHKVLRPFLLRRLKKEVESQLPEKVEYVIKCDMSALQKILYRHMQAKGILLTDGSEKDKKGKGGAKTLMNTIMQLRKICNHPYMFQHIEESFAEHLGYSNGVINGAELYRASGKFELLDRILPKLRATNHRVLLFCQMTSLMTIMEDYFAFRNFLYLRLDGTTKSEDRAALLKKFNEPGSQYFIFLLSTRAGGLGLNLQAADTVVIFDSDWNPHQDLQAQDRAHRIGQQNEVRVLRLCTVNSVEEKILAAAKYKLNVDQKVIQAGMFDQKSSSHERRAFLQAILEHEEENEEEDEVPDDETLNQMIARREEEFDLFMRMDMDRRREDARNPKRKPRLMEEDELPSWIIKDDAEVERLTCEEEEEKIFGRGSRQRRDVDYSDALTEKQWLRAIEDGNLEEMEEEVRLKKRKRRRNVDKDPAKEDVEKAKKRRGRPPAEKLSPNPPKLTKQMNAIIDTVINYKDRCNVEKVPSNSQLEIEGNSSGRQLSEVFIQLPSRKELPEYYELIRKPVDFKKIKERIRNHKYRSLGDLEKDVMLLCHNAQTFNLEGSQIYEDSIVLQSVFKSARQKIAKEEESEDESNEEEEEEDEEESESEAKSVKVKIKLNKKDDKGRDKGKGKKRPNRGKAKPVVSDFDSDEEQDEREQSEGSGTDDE
T2 sequence (P51532 whole entry, the tested form may be a part): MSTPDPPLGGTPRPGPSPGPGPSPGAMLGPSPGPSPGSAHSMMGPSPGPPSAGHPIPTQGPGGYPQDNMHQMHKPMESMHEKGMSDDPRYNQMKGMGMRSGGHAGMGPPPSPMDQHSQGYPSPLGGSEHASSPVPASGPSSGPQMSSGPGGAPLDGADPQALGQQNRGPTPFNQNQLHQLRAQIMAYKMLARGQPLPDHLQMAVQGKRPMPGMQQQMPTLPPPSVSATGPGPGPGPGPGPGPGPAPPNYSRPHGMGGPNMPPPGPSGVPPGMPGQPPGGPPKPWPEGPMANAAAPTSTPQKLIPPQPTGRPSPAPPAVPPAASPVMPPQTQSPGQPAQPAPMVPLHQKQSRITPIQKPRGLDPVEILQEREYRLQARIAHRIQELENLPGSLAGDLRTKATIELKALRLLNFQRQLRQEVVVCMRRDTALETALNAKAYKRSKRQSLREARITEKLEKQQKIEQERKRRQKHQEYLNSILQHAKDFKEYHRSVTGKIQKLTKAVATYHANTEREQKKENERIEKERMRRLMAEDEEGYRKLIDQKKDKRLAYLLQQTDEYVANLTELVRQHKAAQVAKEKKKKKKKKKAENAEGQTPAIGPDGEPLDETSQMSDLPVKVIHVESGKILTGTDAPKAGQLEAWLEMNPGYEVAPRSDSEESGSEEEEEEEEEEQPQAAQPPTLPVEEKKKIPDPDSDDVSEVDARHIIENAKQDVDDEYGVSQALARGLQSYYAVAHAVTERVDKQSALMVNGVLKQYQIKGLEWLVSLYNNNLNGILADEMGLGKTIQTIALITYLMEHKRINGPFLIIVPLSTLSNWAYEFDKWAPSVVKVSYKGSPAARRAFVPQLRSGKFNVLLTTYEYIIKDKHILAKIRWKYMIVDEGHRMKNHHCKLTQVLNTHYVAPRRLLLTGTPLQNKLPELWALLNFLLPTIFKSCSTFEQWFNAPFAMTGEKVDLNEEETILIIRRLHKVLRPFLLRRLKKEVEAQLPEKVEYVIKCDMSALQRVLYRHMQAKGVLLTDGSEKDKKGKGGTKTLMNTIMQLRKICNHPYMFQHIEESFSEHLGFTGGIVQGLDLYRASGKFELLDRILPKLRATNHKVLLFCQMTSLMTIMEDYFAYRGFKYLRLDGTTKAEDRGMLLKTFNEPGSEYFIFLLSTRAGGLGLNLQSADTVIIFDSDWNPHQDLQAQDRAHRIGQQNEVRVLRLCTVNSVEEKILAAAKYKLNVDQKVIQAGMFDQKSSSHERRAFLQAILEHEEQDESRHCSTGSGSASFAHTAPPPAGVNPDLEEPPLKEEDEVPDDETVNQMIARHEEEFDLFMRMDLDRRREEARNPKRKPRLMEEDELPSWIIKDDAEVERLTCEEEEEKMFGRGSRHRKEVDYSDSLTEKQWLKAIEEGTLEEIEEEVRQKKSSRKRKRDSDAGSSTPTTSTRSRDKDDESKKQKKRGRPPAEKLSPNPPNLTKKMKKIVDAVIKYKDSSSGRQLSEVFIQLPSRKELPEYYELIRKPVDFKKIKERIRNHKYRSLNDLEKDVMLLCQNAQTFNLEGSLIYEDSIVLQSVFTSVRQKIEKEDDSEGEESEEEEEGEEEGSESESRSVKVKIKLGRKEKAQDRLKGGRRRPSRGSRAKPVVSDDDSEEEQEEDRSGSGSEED

For `CNC(=O)[C@@H]1C[C@@H](O)CN1C(=O)[C@@H](c1cc(N2CC3(CN(c4ccc5cc(-c6ccccc6O)nnc5c4)C3)C2)no1)C(C)C` [Compound 156, (2S,4R)-4-hydroxy-1-((R)-2-(3-(6-(3-(2-hydroxyphenyl)cinnolin-7-yl)-2,6-diazaspiro[3.3]heptan-2-yl)isoxazol-5-yl)-3-methylbutanoyl)-N-methylpyrrolidine-2-carboxamide], in assay [1], the DC50 is below 10 nM and the “BRM HiBit Degradation Maximum (%)” value was “A (“A” indicates maximum degradation ≥75%)”. Further, the Dmax in assay [2] was below 50%.

As to `Cc1ncsc1-c1ccc([C@H](C)NC(=O)[C@@H]2C[C@@H](O)CN2C(=O)C(C(C)C)n2cc(N3CCC4(CCN(c5ccc6cc(-c7ccccc7O)nnc6c5)CC4)C3)nn2)cc1` (stereo partly drawn) [Compound 233, (2S,4R)-4-hydroxy-1-(2-(4-(8-(3-(2-hydroxyphenyl)cinnolin-7-yl)-2,8-diazaspiro[4.5]decan-2-yl)-1H-1,2,3-triazol-1-yl)-3-methylbutanoyl)-N-((S)-1-(4-(4-methylthiazol-5-yl)phenyl)ethyl)pyrrolidine-2-carboxamide], in assay [1], the DC50 was below 10 nM and the “BRM HiBit Degradation Maximum (%)” value is “A (“A” indicates maximum degradation ≥75%)”. In assay [2], the DC50 is below 10 nM and the Dmax was above 75%.

Regarding `CC(C)C(C(=O)N1C[C@H](O)C[C@H]1C(=O)N[C@@H](C)c1ccc(C#N)cc1)c1cc(N2CC3(CN(c4ccc5cc(-c6ccccc6O)nnc5c4)C3)C2)no1` (stereo partly drawn) [Compound 112, (2S,4R)-N-((S)-1-(4-cyanophenyl)ethyl)-4-hydroxy-1-(2-(3-(6-(3-(2-hydroxyphenyl)cinnolin-7-yl)-2,6-diazaspiro[3.3]heptan-2-yl)isoxazol-5-yl)-3-methylbutanoyl)pyrrolidine-2-carboxamide], in assay [1], the DC50 was below 10 nM and the “BRM HiBit Degradation Maximum (%)” value is “A (“A” indicates maximum degradation ≥75%)”. For the same compound, in assay [2], the DC50 was above 10 nM and the Dmax was above 50%.
